# In ChEMBL document CHEMBL5365427, “Discovery and Structural Optimization of Covalent ZAP-70 Kinase Inhibitors against Psoriasis” (J Med Chem, 2023):
# Activity calls are given as the source filed them. No cut-off for these calls is given here.
# How the values were obtained:
# [1] = biological target: T1, Tyrosine-protein kinase SYK (Homo sapiens, UniProt P43405); assay: Inhibition of SYK (unknown origin) using ULight-TK peptide as substrate at 1 uM incubated for 120 mins in presence of ATP by Lance Ultra Kinase assay relative to control
# [2] = biological target: T1, Tyrosine-protein kinase SYK; assay: Inhibition of SYK (unknown origin) using ULight-TK peptide as substrate incubated for 120 mins in presence of ATP by Lance Ultra Kinase assay
# [3] = GSH reactivity of compound at pH 7.4 PBS buffer assessed as half life incubated for 180 min by HPLC-MS analysis; format: physicochemical; details: glutathione (GSH) in PBS buffer
# Splenocyte = assay: Immunosuppressive activity in BALB/c mouse Splenocyte assessed as inhibition of concanavalin A induced T-cell proliferation incubated for 48 hrs by [3H]-thymidine incorporation based beta scintillation counter analysis; format: functional
# [4] = biological target: T2, Tyrosine-protein kinase ZAP-70 (Homo sapiens, UniProt P43403); assay: Inhibition of ZAP-70 (unknown origin) using ULight-TK peptide as substrate incubated for 120 mins in presence of ATP by Lance Ultra Kinase assay
# T2 sequence (P43403 whole entry): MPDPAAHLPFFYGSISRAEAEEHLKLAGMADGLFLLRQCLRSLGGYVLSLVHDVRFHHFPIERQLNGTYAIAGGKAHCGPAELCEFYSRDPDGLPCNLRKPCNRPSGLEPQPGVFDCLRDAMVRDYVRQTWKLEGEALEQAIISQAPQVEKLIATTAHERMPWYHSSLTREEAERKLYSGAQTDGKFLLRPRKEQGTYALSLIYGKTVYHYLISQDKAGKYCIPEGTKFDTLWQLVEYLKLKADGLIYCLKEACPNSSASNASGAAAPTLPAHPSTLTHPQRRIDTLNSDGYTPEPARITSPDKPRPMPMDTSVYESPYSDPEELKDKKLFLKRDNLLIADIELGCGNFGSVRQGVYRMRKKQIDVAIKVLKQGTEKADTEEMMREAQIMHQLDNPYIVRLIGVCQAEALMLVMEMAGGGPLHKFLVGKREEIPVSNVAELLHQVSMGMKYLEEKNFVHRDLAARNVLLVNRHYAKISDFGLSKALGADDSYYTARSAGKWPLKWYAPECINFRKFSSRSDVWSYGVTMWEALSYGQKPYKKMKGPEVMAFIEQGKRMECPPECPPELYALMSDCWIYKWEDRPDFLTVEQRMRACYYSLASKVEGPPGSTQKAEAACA
inhibition [1] [%],IC50 [2] [µM],half-life [3] [h],IC50 [4] [µM],SMILES,Activity (Splenocyte)
6.2,,,,C=CC(=O)Nc1ccc(F)c(CNc2nc(Nc3cc(OC)cc(OC)c3)c(C(N)=O)c3nccn23)c1,
15.1,,,,C=CC(=O)Nc1cc(CNc2nc(Nc3cc(OC)cc(OC)c3)c(C(N)=O)c3nccn23)ccc1C,
27.6,,,,C=CC(=O)Nc1cc(CNc2nc(Nc3ccc(N4CCOCC4)c(OC(C)C)c3)c(C(N)=O)c3nccn23)ccc1Cl,
19.8,> 10,1.07,,C=CC(=O)Nc1cc(CNc2nc(Nc3cc(OC)cc(OC)c3)c(C(N)=O)c3nccn23)ccc1F,
3.2,,,,C=CC(=O)Nc1cc(CNc2nc(Nc3ccc(N4CCOCC4)cc3OC)c(C(N)=O)c3nccn23)ccc1Cl,
82,0.641,,,C=CC(=O)Nc1cc(CNc2nc(Nc3ccc(N4CCOCC4)c(OCC)c3)c(C(N)=O)c3nccn23)ccc1Cl,Active
0.5,,,,C=CC(=O)Nc1cc(CNc2nc(Nc3cc(OC)cc(OC)c3)c(C(N)=O)c3nccn23)ccc1C(F)(F)F,
61.4,5.53,,,C=CC(=O)Nc1cc(CNc2nc(Nc3ccc(N4CCOCC4)cc3)c(C(N)=O)c3nccn23)ccc1Cl,
8.2,,,,C=CC(=O)Nc1cc(Cl)cc(CNc2nc(Nc3cc(OC)cc(OC)c3)c(C(N)=O)c3nccn23)c1,
18.8,,,,C=CC(=O)Nc1cc(CNc2nc(Nc3ccc(N4CCOCC4)c(NC(C)=O)c3)c(C(N)=O)c3nccn23)ccc1Cl,
20.7,> 10,,0.0448,COc1cc(Nc2nc(NCc3cccc(NC(=O)CCl)c3)n3ccnc3c2C(N)=O)cc(OC)c1,Active
7,,0.383,,C=CC(=O)Nc1cc(CNc2nc(Nc3cc(OC)cc(OC)c3)c(C(N)=O)c3nccn23)ccn1,
17.5,> 10,1.35,,C=CC(=O)Nc1cc(CNc2nc(Nc3cc(OC)cc(OC)c3)c(C(N)=O)c3nccn23)ccc1Cl,
87.5,0.598,,,C=CC(=O)Nc1cc(CNc2nc(Nc3ccc(N4CCN(C5COC5)CC4)c(OC)c3)c(C(N)=O)c3nccn23)ccc1Cl,Active
9,,,,C=CC(=O)Nc1cc(CNc2nc(Nc3cc(OC)cc(OC)c3)c(C(N)=O)c3nccn23)ccc1O,
10.1,,,,C=CC(=O)Nc1cccc(C(C)Nc2nc(Nc3cc(OC)cc(OC)c3)c(C(N)=O)c3nccn23)c1 (stereo unspecified),
15.4,,4.23,,C=CC(=O)Nc1cccc(CNc2nc(Nc3cc(OC)cc(OC)c3)c(C(N)=O)c3nccn23)c1,
-5.9,,,,C=CC(=O)Nc1cccc(CN(C)c2nc(Nc3cc(OC)cc(OC)c3)c(C(N)=O)c3nccn23)c1,
22.3,,,,C=CC(=O)Nc1ccc2c(c1)CN(c1nc(Nc3cc(OC)cc(OC)c3)c(C(N)=O)c3nccn13)CC2,
40.2,4.28,,,C=CC(=O)Nc1cc(CNc2nc(Nc3ccc(N4CCOCC4)c(CO)c3)c(C(N)=O)c3nccn23)ccc1Cl,
0.8,,,,C=CC(=O)Nc1cc(F)cc(CNc2nc(Nc3cc(OC)cc(OC)c3)c(C(N)=O)c3nccn23)c1,
10.9,,,,C=CC(=O)N1CCCc2c(CNc3nc(Nc4cc(OC)cc(OC)c4)c(C(N)=O)c4nccn34)cccc21,
6.8,,,,C=CC(=O)Nc1ccc(Cl)c(CNc2nc(Nc3cc(OC)cc(OC)c3)c(C(N)=O)c3nccn23)c1,
71.2,1.28,,,C=CC(=O)Nc1cc(CNc2nc(Nc3ccc(N4CCCN(C)CC4)c(OC)c3)c(C(N)=O)c3nccn23)ccc1Cl,Active
17.7,,,,C=CC(=O)Nc1cc(CNc2nc(Nc3cc(OC)cc(N4CCOCC4)c3)c(C(N)=O)c3nccn23)ccc1Cl,
44.7,7,,,C=CC(=O)Nc1cccc(CNc2nc(Nc3cc(OC)cc(OC)c3)c(C(N)=O)c3nccn23)c1F,
47.1,1.29,,,C=CC(=O)Nc1cc(CNc2nc(Nc3ccc(N4CCC(O)CC4)c(OC)c3)c(C(N)=O)c3nccn23)ccc1Cl,Active
13.2,,,,C=CC(=O)Nc1cccc(CNc2nc(Nc3cc(OC)cc(OC)c3)c(C(N)=O)c3nccn23)c1Cl,
84,0.532,,,C=CC(=O)Nc1cc(CNc2nc(Nc3ccc(N4CCN(C)CC4)c(OC)c3)c(C(N)=O)c3nccn23)ccc1Cl,Active
